In ChEMBL document CHEMBL1201862, “PubChem BioAssay data set” (2004):
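Five concentrations, 48 hours, 96-well plates. GI50 is the concentration that inhibits growth by half.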 Active and inactive are the calls of the source. Rule as the data show it: active = GI50 up to about 1.1 µM and inactive = higher.

Tests used:
Assay in all cases: growth of human tumour cells (NCI), 48 h
SK-MEL-5 = tested on: SK-MEL-5
KM12 = tested on: KM12
UACC-257 = tested on: UACC-257
U-251 = tested on: U-251
A549 = tested on: A549
HCT-116 = tested on: HCT-116
T47D = tested on: T47D
RXF 393 = tested on: RXF 393
CAKI-1 = tested on: CAKI-1
HCC 2998 = tested on: HCC 2998
NCI-H23 = tested on: NCI-H23
NCI-H522 = tested on: NCI-H522
MDA-MB-231 = tested on: MDA-MB-231
OVCAR-4 = tested on: OVCAR-4
786-0 = tested on: 786-0
SK-OV-3 = tested on: SK-OV-3
UACC-62 = tested on: UACC-62
CCRF-CEM = tested on: CCRF-CEM
SF-268 = tested on: SF-268
HL-60 = tested on: HL-60

| SMILES | GI50 (SK-MEL-5) | GI50 (KM12) | GI50 (UACC-257) | GI50 (U-251) | GI50 (A549) | GI50 (HCT-116) | GI50 (T47D) | GI50 (RXF 393) | GI50 (CAKI-1) | GI50 (HCC 2998) | GI50 (NCI-H23) | GI50 (NCI-H522) | GI50 (MDA-MB-231) | GI50 (OVCAR-4) | GI50 (786-0) | GI50 (SK-OV-3) | GI50 (UACC-62) | GI50 (CCRF-CEM) | GI50 (SF-268) | GI50 (HL-60) |
| --- | --- | --- | --- | --- | --- | --- | --- | --- | --- | --- | --- | --- | --- | --- | --- | --- | --- | --- | --- | --- |
| CN1C/C(=C\c2cccs2)C2=NC(=S)NC(c3cccs3)C2C1 (stereo unspecified) | 33.6 µM (inactive) | 57 µM (inactive) | 36.6 µM (inactive) | > 100 µM (inactive) | 50.7 µM (inactive) | 64.4 µM (inactive) | 24.9 µM (inactive) | 88.7 µM (inactive) | > 100 µM (inactive) | 93.8 µM (inactive) | 77.6 µM (inactive) | 36.4 µM (inactive) | > 100 µM (inactive) | 29.5 µM (inactive) | > 100 µM (inactive) | > 100 µM (inactive) | 81.1 µM (inactive) | 19.7 µM (inactive) | 61.4 µM (inactive) | 2.22 µM (inactive) |
| CC(=O)N1C(Nc2ccccn2)CCN1c1ccccc1 (stereo unspecified) | > 10 µM (inactive) |  | > 10 µM (inactive) |  | > 10 µM (inactive) | > 10 µM (inactive) | > 10 µM (inactive) | > 10 µM (inactive) | > 10 µM (inactive) | > 10 µM (inactive) | > 10 µM (inactive) | > 10 µM (inactive) | > 10 µM (inactive) | > 10 µM (inactive) | > 10 µM (inactive) | > 10 µM (inactive) |  | > 10 µM (inactive) | > 10 µM (inactive) | > 10 µM (inactive) |
| CCN(CCCl)c1cccc(NC(=O)c2ccc(C(=O)Nc3cccc(CN(C)C)c3)cc2)c1 | 0.0118 µM (active) | 0.129 µM (active) | 0.113 µM (active) | 0.0349 µM (active) | 0.211 µM (active) | 0.0611 µM (active) | 0.0412 µM (active) | < 0.01 µM (active) | 0.302 µM (active) | 0.123 µM (active) | 0.0935 µM (active) | < 0.01 µM (active) | 0.195 µM (active) | 0.0344 µM (active) | 0.0239 µM (active) | 0.298 µM (active) | 0.0785 µM (active) | 0.027 µM (active) | 0.0379 µM (active) | 0.0292 µM (active) |
| O=C1CC(c2cccc(Br)c2)n2cccc21 (stereo unspecified) |  | 46.2 µM (inactive) | > 100 µM (inactive) | > 100 µM (inactive) | 62.1 µM (inactive) | > 100 µM (inactive) | 63.4 µM (inactive) | > 100 µM (inactive) | 44.6 µM (inactive) | 54.7 µM (inactive) | 63.5 µM (inactive) | 47.2 µM (inactive) | > 100 µM (inactive) | 88.9 µM (inactive) | > 100 µM (inactive) | > 100 µM (inactive) | > 100 µM (inactive) | > 100 µM (inactive) | 67.8 µM (inactive) | 28.1 µM (inactive) |
| CC(=O)OC1C(C)OC(OC(=O)C2CCC3C(C2)OC2(CC(OC(=O)/C=C/c4ccccc4)C(C)CO2)C32CO2)C(OC2OC(C)C(O)C(OC(C)=O)C2O)C1O (stereo unspecified) | < 0.01 µM (active) | < 0.01 µM (active) | < 0.01 µM (active) | < 0.01 µM (active) | < 0.01 µM (active) | < 0.01 µM (active) | < 0.01 µM (active) | < 0.0152 µM (active) | 0.245 µM (active) | < 0.01 µM (active) | < 0.01 µM (active) | < 0.01 µM (active) | < 0.01 µM (active) | < 0.01 µM (active) | < 0.01 µM (active) | < 0.01 µM (active) | < 0.01 µM (active) | < 0.01 µM (active) | < 0.01 µM (active) | < 0.01 µM (active) |
| COc1cc2ccc(/C=C\[N+](=O)[O-])cc2cc1OC | 4.76 µM (inactive) | 6.85 µM (inactive) | 3.11 µM (inactive) | 2.65 µM (inactive) | 11.4 µM (inactive) | 2.34 µM (inactive) | 2.92 µM (inactive) | 1.87 µM (inactive) | 5.06 µM (inactive) | 3.44 µM (inactive) | 2.5 µM (inactive) | 1.13 µM (inactive) | 2.84 µM (inactive) | 3.04 µM (inactive) | 1.68 µM (inactive) | 14.3 µM (inactive) | 5.15 µM (inactive) | 1.44 µM (inactive) | 3.36 µM (inactive) | 1.97 µM (inactive) |
| C=CCN1C[C@H](C)N([C@H](c2ccc(C(=O)NC(CC)CC)cc2)c2cccc(OC)c2)C[C@H]1C | 17.9 µM (inactive) | 37.7 µM (inactive) | 26.2 µM (inactive) | 34 µM (inactive) | 33.9 µM (inactive) | 21.6 µM (inactive) | 29 µM (inactive) | 33.7 µM (inactive) | 22.6 µM (inactive) | 29.2 µM (inactive) | 43.2 µM (inactive) | 13.4 µM (inactive) | 28 µM (inactive) | 46 µM (inactive) | 34.6 µM (inactive) | > 100 µM (inactive) | 20.8 µM (inactive) | 41.4 µM (inactive) | 83.2 µM (inactive) | 10.9 µM (inactive) |
| O=C1CCC2(CC1CC(Sc1ccccc1)Sc1ccccc1)OCCO2 (stereo unspecified) | 17.5 µM (inactive) | 27.4 µM (inactive) | 36.8 µM (inactive) | 41.9 µM (inactive) | 38.2 µM (inactive) |  | 22.5 µM (inactive) | 36.1 µM (inactive) | 34.9 µM (inactive) | 44.1 µM (inactive) | 42.7 µM (inactive) | 23.3 µM (inactive) | 83.4 µM (inactive) | 56.1 µM (inactive) | 45.7 µM (inactive) | > 100 µM (inactive) | 31.2 µM (inactive) | 31 µM (inactive) | 31.2 µM (inactive) | 19.8 µM (inactive) |
| CC(=O)OCC1OC(n2c(C)c(C)c(C)c(C#N)c2=S)C(OC(C)=O)C(OC(C)=O)C1OC(C)=O (stereo unspecified) | > 100 µM (inactive) | > 100 µM (inactive) | > 100 µM (inactive) | 27.6 µM (inactive) | > 100 µM (inactive) | 28.6 µM (inactive) | > 100 µM (inactive) | 18.6 µM (inactive) | > 100 µM (inactive) | > 100 µM (inactive) | > 100 µM (inactive) | 21.8 µM (inactive) | > 100 µM (inactive) | > 100 µM (inactive) | 23.7 µM (inactive) | 24.8 µM (inactive) | > 100 µM (inactive) | > 100 µM (inactive) | 95.5 µM (inactive) | > 100 µM (inactive) |
| COc1ccccc1NC1Oc2cc3c(cc2C(c2cc(OC)c(OC)c(OC)c2)C1C)OCO3 (stereo unspecified) | 0.769 µM (active) | 1.43 µM (inactive) | 8.17 µM (inactive) | 2.92 µM (inactive) | 4.53 µM (inactive) | 2.42 µM (inactive) | 5.86 µM (inactive) | 1.14 µM (inactive) | 2.22 µM (inactive) | 3.04 µM (inactive) | 4.46 µM (inactive) | 1.45 µM (inactive) | 1.78 µM (inactive) | 6.37 µM (inactive) | 3.5 µM (inactive) | 10.5 µM (inactive) | 1.53 µM (inactive) | 2.37 µM (inactive) | 3.62 µM (inactive) | 0.612 µM (active) |
| O=c1cc(N2CCCC2)[nH]c(=O)n1-c1cccc(Cl)c1 |  | > 100 µM (inactive) | > 100 µM (inactive) | > 100 µM (inactive) |  | > 100 µM (inactive) | > 100 µM (inactive) | > 100 µM (inactive) | > 100 µM (inactive) | > 100 µM (inactive) | > 100 µM (inactive) | > 100 µM (inactive) | > 100 µM (inactive) | > 100 µM (inactive) | > 100 µM (inactive) | > 100 µM (inactive) | > 100 µM (inactive) | > 100 µM (inactive) | > 100 µM (inactive) | > 100 µM (inactive) |
| O=[N+]([O-])c1ncc(N(CCO)CCO)s1 |  | > 100 µM (inactive) | 25 µM (inactive) | 45.3 µM (inactive) |  | 37.1 µM (inactive) | 27.5 µM (inactive) | 16.7 µM (inactive) | > 100 µM (inactive) | 47 µM (inactive) | 41 µM (inactive) | 16.4 µM (inactive) | 67.8 µM (inactive) | > 100 µM (inactive) | 34 µM (inactive) | > 100 µM (inactive) | 19.8 µM (inactive) | 22.8 µM (inactive) | 40.3 µM (inactive) | 17.7 µM (inactive) |
| Cc1[nH]n(-c2ncc(C(=O)O)c(=O)[nH]2)c(=O)c1CCO | > 100 µM (inactive) | > 100 µM (inactive) | > 100 µM (inactive) | > 100 µM (inactive) | > 85.3 µM (inactive) | > 100 µM (inactive) | > 100 µM (inactive) | > 100 µM (inactive) | > 100 µM (inactive) | > 58.9 µM (inactive) | > 100 µM (inactive) | > 100 µM (inactive) | > 100 µM (inactive) | > 100 µM (inactive) | > 100 µM (inactive) | > 100 µM (inactive) | > 100 µM (inactive) | > 100 µM (inactive) | > 100 µM (inactive) | > 100 µM (inactive) |
| O=C1/C(=N/CCc2cc(Br)c(O)c(Br)c2)C=C(O)c2cccnc21 | 1.24 µM (inactive) | 2.94 µM (inactive) | 1.37 µM (inactive) | 1.93 µM (inactive) | 2.1 µM (inactive) | 2.46 µM (inactive) | 7.78 µM (inactive) | 2.24 µM (inactive) | 5.04 µM (inactive) | 6.78 µM (inactive) | 0.502 µM (active) | 1.74 µM (inactive) | 7.35 µM (inactive) | 2.72 µM (inactive) | 2.22 µM (inactive) | 7.26 µM (inactive) | 1.51 µM (inactive) | 5.24 µM (inactive) | 2.19 µM (inactive) | 4.88 µM (inactive) |
